# Values joined by “and” are separate entries in the source; they are usually repeats but may differ in a detail not shown here. Identical values can stand only once. Like-named read-outs stand apart in the source and are kept apart here.
# Legend:
# [1] = target: T1, porcine pancreas elastase (Sus scrofa, UniProt P00772); assay: In vitro elastase inhibition with AAAPVN substrate; assay type: biochemical; settings: read-out: elastase inhibitory IC50
# T1 construct: purchased Sigma-Aldrich; host or cells: porcine pancreas
# Description: The in vitro inhibitory effects of SPs and their glycosides on elastase activity (known as anti-wrinkle bioactivities) were assessed using porcine pancreas elastase (Sigma-Aldrich). Its synthetic substrate AAAPVN (Sigma-Aldrich) was dissolved in phosphate buffer (pH 8.0, 200 mM). In each well of a 96-well microplate, the above elastase (20 μL) was mixed with the SPs and their glycosides in the phosphate buffer (150 μL) and then pre-incubated at 25 °C for 15 min prior to substrate AAAPVN (30 μL) supplementation.
# [2] = target: T2, tyrosinase (mushroom origin) (Agaricus bisporus, UniProt C7FF04); assay: In vitro tyrosinase inhibition with L-tyrosine as substrate; assay type: biochemical; settings: for IC50: mushroom tyrosinase, L-tyrosine substrate, read-out: tyrosinase inhibitory IC50; for fold higher tyrosinase inhibitory effect than kojic acid: ratio of IC50 values vs kojic acid
# T2 construct: purchased Sigma-Aldrich
# Description: The in vitro inhibitory effects of SPs and their glycosides towards tyrosinase (Sigma-Aldrich; mushroom origin; 2000 Unit/mL) activities were determined using L-tyrosine as a substrate. Briefly, the reaction mixtures, comprising 100 μL phosphate buffer (pH 6.8, 100 mM), 20 μL of tyrosinase (250 U/mL) and 20 μL of varying concentrations of SPs and their glycosides (in DMSO), were preincubated at 30 °C for 10 min.
# [3] = system: intracellular ROS in TBHP-induced B16F10 cells; assay: DCFDA cellular ROS detection assay in TBHP-induced B16F10 cells; assay type: cell-based, murine; settings: 5.0, 10 and 20 μM tested
# Description: The intracellular reactive oxygen species (ROS) level was quantitatively determined using the dichlorofluorescin diacetate (DCFDA) cellular ROS detection assay kit (ab113851, Abcam, Cambridge, UK), according to the manufacturer’s instructions. Briefly, B16F10 cells were seeded in a 24-well plate at a density of 2 × 10^3 cells/well. The cells were washed three times using PBS and subjected to staining with 20 μM DCFDA in PBS for 20 min at 37 °C under dark conditions. After staining, the cells were washed with PBS again and incubated with 50 μM TBHP solution (Sigma-Aldrich, St. Louis, MO, USA). Cells were treated time-dependently (10, 30 min and 1 h) with the indicated concentrations of SPs and their glycosides in 0.1% bovine serum albumin containing culture media after DCFDA incubation. The ROS level was analyzed by a fluorescence microplate reader (SpectraMax Gemini XPS/EM, Molecular Devices, Sunnyvale, CA, USA) set at an excitation wavelength of 485 nm and an emission wavelength of 545 nm. Relative fluorescence intensity of controls was equated to 100%, with treatment conditions estimated proportionally.
# The in vitro antioxidant activity of SP aglycones and their corresponding glycosides was evaluated through their DPPH-driven radical scavenging abilities in comparison with a well-known antioxidant, L-ascorbic acid. […] Although the mean IC50 values of HPP2G and HPP2DG appear to be a little lower than those of HPP3G and HPP3DG, respectively, there was, however, no statistically significant difference found within (also between) these glycoside groups. Next, we implemented a DCFDA cell-based ROS detection assay to determine whether the SP aglycones and their glycoside analogs function in vivo as antioxidants against intracellular ROS synthesis in the above-described B16F10 cells or not. The TBHP-induced cells were further incubated with different concentrations (5.0, 10 and 20 μM) of SPs and their glycosides for varied time periods (10, 30 min and 1 h).
# [4] = system: melanin biosynthesis in B16F10 murine melanoma cells; assay: Inhibition of α-MSH-induced cellular melanin biosynthesis in B16F10 cells; assay type: cell-based; settings: fixed 20 μM treatments, 48 h, 2 μM α-MSH
# Description: The inhibitory effects of SPs and their glycosides towards cellular melanin biosynthesis were examined using the above-described B16F10 murine melanoma cells. After 24 h seed cultivation in a 24-well plate, these cells were treated with the indicated concentrations of SPs and their glycosides for a further 48 h in the presence of 2 μM α-melanocyte stimulating hormone (α-MSH, Sigma-Aldrich). After washing twice with chilled Dulbecco’s PBS supplemented with calcium chloride and magnesium chloride, the resulting cells were treated with trypsin-EDTA solution (Sigma-Aldrich) to recover melanoma cells. After centrifugation at 1000× […] for 3 min, the cell pellet recovered was dissolved in 100 μL of 1 M NaOH solution (containing 10% DMSO) at 55 °C for 1 h. The melanin content was determined by the absorbance at 405 nm using a microplate reader according to the calibration curve obtained from melanin (Sigma-Aldrich) standards, and melanin synthesis inhibitory activities were expressed as the percentage inhibition of cellular melanin synthesis in the above assay; α-arbutin was used as positive control, while DMSO only was used as negative control.
# [5] = DPPH free radical scavenging assay (in vitro antioxidant activity); settings: 100 μM DPPH, 30 °C, 15 min
# Description: DPPH (1,1-diphenyl-2-picryl-hydrazyl-hydrate) free radical scavenging assay was employed for determining the in vitro antioxidant activity of SP aglycones and their generated glycosides; L-ascorbic acid was utilized as a positive control whereas DMSO only was used as negative control. The antioxidant activities were expressed as IC50 value (as the concentration of an antioxidant at which 50% of inhibition of free radicals). In brief, 1.9 mL of the 100 μM DPPH reagent (in MeOH) was added into 0.1 mL of each sample diluted within 0.1 to 2 mM range (0.1, 0.2, 0.5, 1.0 and 2.0 mM dissolved in DMSO). After being mixed well by shaking for 5 s, the mixtures were then incubated at 30 °C for 15 min, followed by measuring absorbance with a microplate reader at 515 nm.
# [6] = system: recombinant StSPGT glycosyltransferase; assay: Michaelis-Menten kinetics of recombinant StSPGT glycosyl transfer; assay type: biochemical, Streptomyces tenjimariensis ATCC 31603
# Source text: (§1) To learn more details about the enzymatic function of a recombinant StSPGT, we investigated and determined its bio-catalytic properties using two nucleotide sugars as the glycosyl donor substrates; the production velocities of the corresponding glycosides were plotted against the varied glycosyl donor concentrations, […] with fixed acceptor concentrations. […]
# (§2) the pGEM T-Easy vector (Promega, Madison, WI, USA) and transformed into E. coli XL1-Blue strain (Stratagene, La Jolla, CA, USA). The resultant plasmid obtained from was sequenced; the amplified ORF of interest (annotated as StSPGT) was deposited as GenBank Accession No.
# The NdeI/XhoI-digested fragment excised from the aforementioned pGEM T-Easy vector was cloned into the same sites of the expression vector pET-28a(+) (Novagen, San Diego, CA, USA) and expressed as an N-terminal fusion protein with an His6 tag in E. coli BL21(DE3) strain (selected with […] kanamycin). After induction using 0.5 mM IPTG (Sigma-Aldrich) followed by an overnight incubation at 22°C, the cells were harvested and then disrupted by ultrasonication. The His6-tagged protein from the lysate was purified with TALON-metal affinity resin (Clontech, Mountain View, CA, USA) equilibrated with 50 mM phosphate buffer (0.3 M NaCl, 20 mM imidazole) and incubated at 4°C for 1 hr. After 5 min of refrigerated centrifuge at 2000 rpm, the resin was introduced into a disposable column and washed with phosphate buffer containing 20 mM imidazole, equivalent to 8 times the amount of the resin. Finally, recombinant […]
# imidazole . The protein concentration was determined according to the Bradford method and the purified StSPGT was stored at −20°C prior to enzymatic reactions.
# In vitro Enzymatic GT Reactions and Its Kinetic Studies
# After dissolving two SP acceptor substrates, including HPP2 and HPP3, in methanol at 100 mM, we diluted them with a reaction buffer solution (50 mM phosphate buffer, 10 mM magnesium chloride and 1 mg/mL bovine serum albumin; pH 7.4) to the final concentration of 1 mM. Then we added 30 μM StSPGT glycosyltransferase along with four different nucleotide-activated glycosyl […]
# GT reaction at 30°C for 30 min. After reaction, an equal volume of ethyl acetate was immediately added to quench the reaction. The organic solvent layer was evaporated to dryness at 40°C by […]
# vacuum centrifugation (EYELA, Tokyo, Japan), and finally reconstituted in methanol prior to HPLC-tandem mass spectrometric (MS/MS) analysis.
# For the determination of the kinetic parameters for each SP acceptor substrate, the concentration of glycosyl donor was fixed at 2 mM, while the concentration of SP was varied from […]
# [7] = system: B16F10 murine melanoma cells; assay: MTT cytotoxicity assay on B16F10 cells; assay type: cell-based; settings: 48 h treatment, highest 20 mM concentration
# Description: The cytotoxic effects of SP aglycones and their glycosides on B16F10 cells was determined using a conventional MTT assay. B16F10 murine melanoma cells were routinely maintained in Dulbecco’s modified Eagle’s medium (DMEM) (Gibco, New York, NY, USA) supplemented with 10% heat-inactivated fetal bovine serum (Gibco), 100 units/mL penicillin and 100 μg/mL streptomycin (Gibco) at 37 °C under humidified 5% CO2 atmosphere. For the assay, these B16F10 cells were seeded in advance in 24-well plastic tissue culture plates at a density of 2 × 10^3 cells/well. After 24 h cultivation, the cells within individual wells were treated with the indicated concentrations of SPs and their glycosides for 48 h. The cells were incubated with MTT solution for additional 4 h in the dark, and the reduced formazan crystals were then dissolved in DMSO; the DMSO percentage in the media was kept below 0.5%. The resulting mixture was transferred to a 96-well microplate, and then the absorbance was measured at 570 nm using a SpectraMax microplate reader (Molecular Devices, Sunnyvale, CA, USA).
# […]. The treatment concentrations of SP aglycones and their glycosides for the bioassays were selected in advance by monitoring their cytotoxicity against the B16F10 murine melanoma cell line using α-arbutin as the reference. […]
# [8] = system: B16F10 murine melanoma cells; set-up: method as in PMID 28467382; settings: concentrations less than 5.0 mM; cited from earlier work
# [9] = system: T3, StSPGT; assay: Michaelis-Menten kinetics of glycosyl transfer by HPLC-MS/MS product quantitation, donor varied 0.1-1.2 mM at fixed 1.0 mM acceptor HPP3, 50 mM phosphate pH 7.4, 10 mM MgCl2, 30 °C.; assay type: biochemical; settings: SD, n = 3
# T3 construct: recombinant, N-terminal His6 tag, pET-28a(+), expressed in E. coli BL21(DE3)
# Source text: as §1, §2
# (§3) The NdeI/XhoI-digested fragment excised from the aforementioned pGEM T-Easy vector was cloned into the same sites of the expression vector pET-28a(+) (Novagen, San Diego, CA, USA) and expressed as an N-terminal fusion protein with an His6 tag in E. coli BL21(DE3) strain (selected with […] kanamycin). After induction using 0.5 mM IPTG (Sigma-Aldrich) followed by an overnight incubation at 22°C, the cells were harvested and then disrupted by ultrasonication. […]
# (§4) imidazole . The protein concentration was determined according to the Bradford method and the purified StSPGT was stored at −20°C prior to enzymatic reactions. […]
# [10] = system: T3, StSPGT; assay: Michaelis-Menten kinetics of glycosyl transfer by HPLC-MS/MS product quantitation, donor varied 0.1-1.2 mM at fixed 1.0 mM acceptor HPP2, 50 mM phosphate pH 7.4, 10 mM MgCl2, 30 °C.; assay type: biochemical; settings: SD, n = 3
# Source text: as §1, §2, §3, §4
# [11] = set-up: method as in PMID 35453457; settings: read-out: DPPH radical scavenging IC50; cited from earlier work
# T2 sequence (C7FF04 1-392 limits assumed): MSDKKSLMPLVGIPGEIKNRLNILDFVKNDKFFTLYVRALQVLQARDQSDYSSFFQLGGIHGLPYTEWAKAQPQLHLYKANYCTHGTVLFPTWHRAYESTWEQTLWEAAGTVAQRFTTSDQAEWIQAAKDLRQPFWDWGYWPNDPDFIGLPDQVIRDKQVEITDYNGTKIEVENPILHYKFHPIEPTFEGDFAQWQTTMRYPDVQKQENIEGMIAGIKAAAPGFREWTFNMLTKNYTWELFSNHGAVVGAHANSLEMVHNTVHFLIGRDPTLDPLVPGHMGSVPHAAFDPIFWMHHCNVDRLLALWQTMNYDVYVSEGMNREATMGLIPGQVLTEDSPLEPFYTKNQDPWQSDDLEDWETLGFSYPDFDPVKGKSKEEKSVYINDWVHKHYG
# T1 sequence (P00772 27-266): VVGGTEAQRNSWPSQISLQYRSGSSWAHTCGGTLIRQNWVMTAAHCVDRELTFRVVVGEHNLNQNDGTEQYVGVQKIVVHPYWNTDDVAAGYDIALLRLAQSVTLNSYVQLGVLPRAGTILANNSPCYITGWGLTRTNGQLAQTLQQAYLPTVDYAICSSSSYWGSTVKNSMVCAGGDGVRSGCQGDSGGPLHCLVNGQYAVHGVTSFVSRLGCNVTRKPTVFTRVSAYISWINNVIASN
SMILES,IC50 [1] [µM],IC50 [2] [µM],IC50 [5] [µM],maximal ROS-scavenging activity [3] [%],inhibition of α-MSH-induced intracellular melanin biosynthesis [4],other results
CCC(O[C@@H]1C[C@@H](O)[C@H](O)[C@@H](CO)O1)c1ccc(O)cc1 (stereo partly shown) [HPP3DG],30.7,30.9,–,45.7,–,–
CCC(O)c1ccc(O)cc1 (stereo not shown) [HPP3],99.1,23.4,19.3,–,21.7%,fold higher tyrosinase inhibitory effect than kojic acid [2]: ~3.3 fold; kcat ([6]; donor TDP-2′dGlc): 0.1865 ± 0.0372 s⁻¹; kcat ([6]; donor UDP-Glc): 0.2812 s⁻¹ and 0.2812 ± 0.0497 s⁻¹
OC[C@H]1O[C@H](Oc2ccc(O)cc2)[C@H](O)[C@@H](O)[C@@H]1O [α-arbutin],–,–,–,–,about 20.3%,change of cell viability [7]: less than 5 % of the control; cytotoxicity for the B16F10 cells [8]: no cytotoxicity
CCC(O[C@H]1O[C@H](CO)[C@@H](O)[C@H](O)[C@H]1O)c1ccc(O)cc1 (stereo partly shown) [HPP3G],31.5,29.1,–,48.9,–,–
"Cc1cn([C@H]2C[C@H](O)[C@@H](COP(=O)(O)OP(=O)(O)O[C@@H]3C[C@@H](O)[C@H](O)[C@@H](CO)O3)O2)c(=O)[nH]c1=O [TDP-2′dGlc, thymidine diphosphate-2′-deoxyglucose]",–,–,–,–,–,Km [9]: 0.5 ± 0.09 mM; Km [10]: 0.41 ± 0.07 mM
"O=C1O[C@H]([C@@H](O)CO)C(O)=C1O [L-ascorbic acid, reference compound]",–,–,23,–,–,IC50 [11]: 22 µM

# Further lines, with some results ahead:
IC50 [1] [µM],IC50 [2] [µM],IC50 [5] [µM],SMILES,maximal ROS-scavenging activity [3] [%],inhibition of α-MSH-induced intracellular melanin biosynthesis [4],other results
–,10.3,–,"Oc1ccc(O)cc1 [hydroquinone, reference compound]",–,–,–
95.3,11.6,18.5,CC(O)Cc1ccc(O)cc1 (stereo not shown) [HPP2],–,50.3%,fold higher tyrosinase inhibitory effect than kojic acid [2]: about 6.6 fold; kcat ([6]; donor TDP-2′dGlc): 0.2155 ± 0.0363 s⁻¹; kcat ([6]; donor UDP-Glc): 0.3235 s⁻¹ and 0.3235 ± 0.0537 s⁻¹
22.1,14.8,–,"CC(Cc1ccc(O)cc1)O[C@H]1O[C@H](CO)[C@@H](O)[C@H](O)[C@H]1O (stereo partly drawn) [HPP2G, hydroxyphenyl-2-propanoyl-O-α-glucoside]",52.0,–,–
25.3,13.8,–,"CC(Cc1ccc(O)cc1)O[C@@H]1C[C@@H](O)[C@H](O)[C@@H](CO)O1 (stereo partly drawn) [HPP2DG, hydroxyphenyl-2-propanoyl-O-α-2″-deoxyglucoside]",54.3,–,–

# From paper PMC9312196, “Enzymatic Biosynthesis of Simple Phenolic Glycosides as Potential Anti-Melanogenic Antioxidants” (Antioxidants, 2022)
